Tested on: Wnt signaling
Assay: Wnt-Luc reporter assay for pathway inhibition of Wnt signaling
Format: cell-based, mouse (TM3 Wnt-Luc) or human (293 Wnt-Luc); not stated which
Settings: Wnt-Luc reporter cells co-cultured with L-cell Wnt3a cells, 24 hours, luciferase signal reduced by 50%
Procedure: This example provides a method that is useful for evaluating test compounds for inhibition of Wnt signaling.
Mouse leydig cell TM3 cells (obtained from American Type Culture Collection, ATCC, Manassas, Va.) are cultured in 1:1 mixture of Ham's F12 medium and Dulbecco's modified Eagle's medium (Gibco/Invitrogen, Carlsbad, Calif.) supplemented with 2.5% FBS (Gibco/Invitrogen, Carlsbad, Calif.) and 5% horse serum (Gibco/Invitrogen, Carlsbad, Calif.), 50 unit/mL penicillin and 50 μg/mL of streptomycin (Gibco/Invitrogen, Carlsbad, Calif.) at 37° C. with 5% CO2 in air atmosphere. TM3 cells in a 10 cm dish are co-transfected with 8 μg of STF-reporter plasmid containing a luciferase gene driven by Wnt-responsive elements and 2 μg of pcDNA3.1-Neo (Gibco/Invitrogen, Carlsbad, Calif.) with 30 μL of FuGENE6 (Roche Diagnostics, Indianapolis, Ind.) following the manufacturer's protocol. Stable cell lines (TM3 Wnt-Luc) were selected with 400 μg/mL of G418 (Gibco/Invitrogen, Carlsbad, Calif.). The TM3 Wnt-Luc cells and L-cell Wnt3a cells (obtained from American Type Culture Collection, ATCC, Manassas, Va.; cultured in Dulbecco's modified Eagle's medium (Gibco/Invitrogen, Carlsbad, Calif.) supplemented with 10% FBS (Gibco/Invitrogen, Carlsbad, Calif.) and 50 unit/mL penicillin and 50 μg/mL of streptomycin (Gibco/Invitrogen, Carlsbad, Calif.) at 37° C. with 5% CO2 in air atmosphere) are trypsinized and co-cultured into a 384-well plate with DMEM medium supplemented with 2% FBS, and treated with different concentrations of a compound of the invention. After 24 hours, the firefly luciferase activities are assayed with the Bright-Glo™ Luciferase Assay System (Promega, Madison, Wis.). The IC50 is measured when the effect of the compound reduces the luminescence signal by 50%.
This example provides another method that is useful for evaluating test compounds for inhibition of Wnt signaling.
Human embryonic kidney 293 cells (obtained from American Type Culture Collection, ATCC, Manassas, Va.) are cultured in DMEM medium (Gibco/Invitrogen, Carlsbad, Calif.) supplemented with 10% FBS (Gibco/Invitrogen, Carlsbad, Calif.), 50 unit/mL penicillin and 50 μg/mL of streptomycin (Gibco/Invitrogen, Carlsbad, Calif.) at 37° C. with 5% CO2 in air atmosphere. 293 cells in a 10 cm dish are co-transfected with 8 μg of STF-reporter plasmid containing a luciferase gene driven by Wnt-responsive elements and 2 μg of pcDNA3.1-Neo (Gibco/Invitrogen, Carlsbad, Calif.) with 30 μL of FuGENE6 (Roche Diagnostics, Indianapolis, Ind.) following the manufacturer's protocol. Stable cell lines (293 Wnt-Luc) were selected with 400 μg/mL of G418 (Gibco/Invitrogen, Carlsbad, Calif.). The 293 Wnt-Luc cells and L-cell Wnt3a cells (obtained from American Type Culture Collection, ATCC, Manassas, Va.) are trypsinized and co-cultured into a 384-well plate with DMEM medium supplemented with 2% FBS, and treated with different concentrations of a compound of the invention. After 24 hours, the firefly luciferase activities are assayed with the Bright-Glo™ Luciferase Assay System (Promega, Madison, Wis.). The IC50 is measured when the effect of the compound reduces the luminescence signal by 50%.

| SMILES | IC50 |
| --- | --- |
| O=C(NCc1ccc(-c2ccnnc2)cc1)c1ccc(-c2ccccc2)cc1 [compound 1, N-(4-(pyridazin-4-yl)benzyl)biphenyl-4-carboxamide] | 1.9 nM |
| O=C(NCc1ccc(-c2ccnnc2)cc1)c1ccc(-c2cccc(F)c2)cc1 [compound 2, 4-(3-fluorophenyl)-N-{[4-(pyridazin-4-yl)phenyl]methyl}benzamide] | 0.95 nM |
| O=C(NCc1ccc(N2CCS(=O)(=O)CC2)nc1)c1ccc(-c2cccc(F)c2)cc1 [compound 3, N-((6-(1,1-dioxidothiomorpholino)pyridin-3-yl)methyl)-3′-fluoro-[1,1′-biphenyl]-4-carboxamide] | 2.3 nM |
| O=C(NCc1ccc(N2CCS(=O)(=O)CC2)nc1)c1ccc(-c2cccc(F)c2)nc1 [compound 4, N-((6-(1,1-dioxidothiomorpholino)pyridin-3-yl)methyl)-6-(3-fluorophenyl)nicotinamide] | 2.4 nM |
| O=C(NCc1ccc(N2CCS(=O)(=O)CC2)nc1)c1ccc(-c2cccnc2)nc1 [compound 5, N-((6-(1,1-dioxidothiomorpholino)pyridin-3-yl)methyl)-[2,3′-bipyridine]-5-carboxamide] | 129 nM |
| O=C(NCc1ccc(N2CCS(=O)(=O)CC2)nc1)c1ccc(-c2cccc(F)c2)cn1 [compound 6, 5-(3-Fluorophenyl)-N-((6-(1,1-dioxide-thiomorpholino)pyridin-3-yl)methyl)picolinamide] | 0.9 nM |
| COC(=O)N1CCN(c2ccc(C(=O)NCc3ccc(N4CCS(=O)(=O)CC4)nc3)cc2)CC1 [compound 7, methyl 4-(4-(((6-(1,1-dioxidothiomorpholino)pyridin-3-yl)methyl)carbamoyl)phenyl)piperazine-1-carboxylate] | 19 nM |
| O=C(NCc1ccc(N2CC[S+]([O-])CC2)nc1)c1ccc(-c2cccc(F)c2)cc1 [compound 8, 3′-fluoro-N-((6-(1-oxide-thiomorpholino)pyridin-3-yl)methyl)biphenyl-4-carboxamide] | 0.7 nM |
| Cc1cc(-c2ccc(CNC(=O)c3ccc(-c4ccccc4)cc3)cc2)ccn1 [compound 9, N-{[4-(2-methylpyridin-4-yl)phenyl]methyl}-4-phenylbenzamide] | 0.06 nM |
| O=C(NCc1ccc(-c2cccnc2)cc1)c1ccc(-c2ccccc2)cc1 [compound 10, N-(4-(pyridin-3-yl)benzyl)biphenyl-4-carboxamide] | 12.5 nM |
| Cc1cc(-c2ccc(CNC(=O)c3ccc(-c4ccccc4)cn3)cc2)ccn1 [compound 11, N-{[4-(2-methylpyridin-4-yl)phenyl]methyl}-5-phenylpyridine-2-carboxamide] | 0.2 nM |
| Cc1cc(-c2ccc(CNC(=O)c3ccc(-c4cccc(F)c4)cc3)cc2)ccn1 [compound 12, 4-(3-fluorophenyl)-N-{[4-(2-methylpyridin-4-yl)phenyl]methyl}benzamide] | 0.06 nM |
| Cc1cc(-c2ccc(CNC(=O)c3ccc(-c4ccccn4)cc3)cc2)ccn1 [compound 13, N-(4-(2-methylpyridin-4-yl)benzyl)-4-(pyridin-2-yl)benzamide] | 0.1 nM |
| COC(=O)N1CCN(c2ccc(C(=O)NCc3cnc(-c4ccnc(C(F)(F)F)c4)c(F)c3)cn2)CC1 [compound 14, methyl 4-{5-[({5-fluoro-6-[2-(trifluoromethyl)pyridin-4-yl]pyridin-3-yl}methyl)carbamoyl]pyridin-2-yl}piperazine-1-carboxylate] | 0.44 nM |
| Cc1cc(-c2ccc(CNC(=O)c3ccc(-c4cncnc4)cc3)cc2F)ccn1 [compound 15, N-(3-fluoro-4-(2-methylpyridin-4-yl)benzyl)-4-(pyrimidin-5-yl)benzamide] | 0.01 nM |
| Cc1cc(-c2ccc(CNC(=O)c3ccc(-c4cncnc4)cc3)cc2)ccn1 [compound 16, N-{[4-(2-methylpyridin-4-yl)phenyl]methyl}-4-(pyrimidin-5-yl)benzamide] | 0.05 nM |

| SMILES | IC50 |
| --- | --- |
| Cc1cc(-c2ccc(CNC(=O)c3ccc(-c4cnccn4)cc3)cc2)ccn1 [compound 17, N-{[4-(2-methylpyridin-4-yl)phenyl]methyl}-4-(pyrazin-2-yl)benzamide] | 0.06 nM |
| Cc1cc(-c2ccc(CNC(=O)c3ccc(-c4cnccn4)cc3)cn2)ccn1 [compound 18, N-((2′-methyl-[2,4′-bipyridin]-5-yl)methyl)-4-(pyrazin-2-yl)benzamide] | 0.2 nM |
| Cc1cc(-c2ccc(CNC(=O)c3ccc(-c4ccnnc4)nc3)cc2)ccn1 [compound 19, N-{[4-(2-methylpyridin-4-yl)phenyl]methyl}-6-(pyridazin-4-yl)pyridine-3-carboxamide] | 27 nM |
| CC(=O)N1CCN(c2ccc(C(=O)NCc3ccc(-c4ccnc(C)c4)c(F)c3)cn2)CC1 [compound 20, 6-(4-Acetylpiperazin-1-yl)-N-(3-fluoro-4-(2-methylpyridin-4-yl)benzyl)nicotinamide] | 6.4 nM |
| Cn1cc(-c2ccc(CNC(=O)c3ccc(-c4cnccn4)cc3)cc2F)ccc1=O [compound 21, N-(3-fluoro-4-(1-methyl-6-oxo-1,6-dihydropyridin-3-yl)benzyl)-4-(pyrazin-2-yl)benzamide] | 6.4 nM |
| CC(=O)N1CCN(c2ccc(C(=O)NCc3ccc(-c4ccnc(C)c4)c(F)c3)nc2)CC1 [compound 22, 5-(4-acetylpiperazin-1-yl)-N-{[3-fluoro-4-(2-methylpyridin-4-yl)phenyl]methyl}pyridine-2-carboxamide] | 8.5 nM |
| Cc1cc(-c2ccc(CNC(=O)c3ccc(-c4cccc(F)c4)cc3)cn2)ccn1 [compound 23, 4-(3-fluorophenyl)-N-{[6-(2-methylpyridin-4-yl)pyridin-3-yl]methyl}benzamide] | 0.1 nM |
| O=C(NCc1ccc(-c2ccnc(F)c2)nc1)c1ccc(-c2cnccn2)cc1 [compound 24, N-((2′-fluoro-[2,4′-bipyridin]-5-yl)methyl)-4-(pyrazin-2-yl)benzamide] | 0.8 nM |
| CN(C)c1ccc(-c2ccc(C(=O)NCc3ccc(-c4ccnc(F)c4)nc3)cn2)cn1 [compound 25, 6-[6-(dimethylamino)pyridin-3-yl]-N-{[6-(2-fluoropyridin-4-yl)pyridin-3-yl]methyl}pyridine-3-carboxamide] | 1.4 nM |
| Cc1cc(-c2ccc(CNC(=O)c3ccc(-c4cccc(F)c4)cn3)cn2)ccn1 [compound 26, 5-(3-fluorophenyl)-N-{[6-(2-methylpyridin-4-yl)pyridin-3-yl]methyl}pyridine-2-carboxamide] | 0.5 nM |
| Cc1cc(-c2ccc(CNC(=O)c3ccc(-c4cccc(F)c4)nc3)cn2)ccn1 [compound 27, 6-(3-fluorophenyl)-N-{[6-(2-methylpyridin-4-yl)pyridin-3-yl]methyl}pyridine-3-carboxamide] | 0.2 nM |
| O=C(NCc1ccc(-c2ccnc(C(F)(F)F)c2)cc1)c1ccc(-c2cnccn2)cc1 [compound 28, 4-(Pyrazin-2-yl)-N-(4-(2-(trifluoromethyl)pyridin-4-yl)benzyl)benzamide] | 0.9 nM |
| Cc1cc(-c2ccc(CNC(=O)c3ccc(-c4cccc(N(C)C)c4)cn3)cn2)ccn1 [compound 29, 5-[3-(dimethylamino)phenyl]-N-{[6-(2-methylpyridin-4-yl)pyridin-3-yl]methyl}pyridine-2-carboxamide] | 43 nM |
| Cc1cc(CNC(=O)c2ccc(-c3cccc(F)c3)cn2)cnc1-c1ccnc(F)c1 [compound 30, N-((2′-fluoro-3-methyl-2,4′-bipyridin-5-yl)methyl)-5-(3-fluorophenyl)picolinamide] | 0.17 nM |
| CC(=O)c1cccc(-c2ccc(C(=O)NCc3ccc(-c4ccnc(C)c4)nc3)nc2)c1 [compound 31, 5-(3-acetylphenyl)-N-{[6-(2-methylpyridin-4-yl)pyridin-3-yl]methyl}pyridine-2-carboxamide] | 8 nM |
| O=C(NCc1ccc(-c2ccnc(C(F)(F)F)c2)nc1)c1ccc(-c2cnccn2)cc1 [compound 32, 4-(pyrazin-2-yl)-N-({6-[2-(trifluoromethyl)pyridin-4-yl]pyridin-3-yl}methyl)benzamide] | 0.7 nM |
